Structures can show the parent of a compound that is named as a salt.
Experiments:
Type in all cases: in vivo
[1] = tested on: ELEIN (Eleusine indica (L.) Gaertn., goosegrass); assay: Example III postemergence foliar-applied mixtures, row crop weeds (corn, soybean), greenhouse: ELEIN
Experimental: (§1) Seeds or nutlets of the desired test plant species were planted in a soil matrix prepared by mixing a loam or sandy loam soil (e.g., 43 percent silt, 19 percent clay, and 38 percent sand, with a pH of about 8.1 and an organic matter content of about 1.5 percent) and calcareous grit in an 80 to 20 ratio. The soil matrix was contained in plastic pots with a surface area of 84.6 square centimters (cm^2) and a volume of 560 cubic centimeters (cm^3). […] The plants were grown for 7-31 days (d) in a greenhouse with an approximate 15 hour (h) photoperiod which was maintained at about 23-29° C. during the day and 22-28° C. during the night. Nutrients (Peters Excel® 15-5-15 5-Ca 2-Mg) and water were added on a regular basis and supplemental lighting was provided with overhead metal halide 1000-Watt lamps as necessary. The plants were employed for testing when they reached the first, second, or third true leaf stage.
Treatments consisted of the acid or esters of 4-amino-3-chloro-5-fluoro-6-(4-chloro-2-fluoro-3-methoxy-phenyl)pyridine-2-carboxylic acid (Compound A), each formulated as an
SC (suspension concentrate), and various herbicidal components alone and in combination. Forms of compound A were applied on an acid equivalent basis.
(§2) Other herbicidal components were applied on an acid equivalent or active ingredient basis and included the 5-enolpyruvylshikimate-3-phosphate synthase (EPSPS)-inhibiting herbicide, glyphosate dimethylamine salt, formulated as Durango DMA® and the glutamine synthase (GS)-inhibiting herbicide, glufosinate ammonium, formulated as Ignite® 280.
For treatments comprised of formulated compounds, measured amounts of compounds were placed individually in 25 mL glass vials and diluted in a volume of 1.5% (v/v) Agri-dex® crop oil concentrate to obtain 6× stock solutions. […] Application solutions were prepared by adding an appropriate amount of each stock solution (typically 2 mL) and diluted to the appropriate final concentrations with the addition of an aqueous mixture of 1.5% (v/v) crop oil concentrate and water so that the final spray solutions contained 1.25% (v/v) crop oil concentrate.
(§3) All stock solutions and applications solutions were visually inspected for compound compatibility prior to application. Compound requirements are based upon a 12 mL application volume at a rate of 187 liters per hectare (L/ha). Formulated compounds were applied to the plant material with an overhead Mandel track sprayer equipped with 8002E nozzles calibrated to deliver 187 L/ha over an application area of 0.503 square meters (m^2) at a spray height of 18 to 20 inches (46 to 50 cm) above the average plant canopy height. Control plants were sprayed in the same manner with the solvent blank.
(§4) The treated plants and control plants were placed in a greenhouse as described above and watered by sub-irrigation to prevent wash-off of the test compounds. After approximately 2 weeks, the condition of the test plants as compared with that of the untreated plants was determined visually and scored on a scale of 0 to 100 percent where 0 corresponds to no injury or growth inhibition and 100 corresponds to complete kill.
The following equation was used to calculate the expected activity of mixtures containing two active ingredients, A and B: […]

[2] = tested on: ECHCG (Echinochloa crusgalli (L.) Beauv., barnyardgrass); assay: Example IV postemergence foliar-applied mixtures, general weed control, greenhouse: ECHCG
Experimental: as §4, with “3” for “2”
(§5) Colby's equation was used to determine the herbicidal effects expected from the mixtures (Colby, S. R. 1967. Calculation of the synergistic and antagonistic response of herbicide combinations. Weeds 15:20-22.) .
(§6) The following equation was used to calculate the expected activity of mixtures containing two active ingredients, A and B:
(§7) A=observed efficacy of active ingredient A at the same concentration as used in the mixture.
(§8) B=observed efficacy of active ingredient B at the same concentration as used in the mixture.

[3] = tested on: CHEAL (Chenopodium album L., common lambsquarters); assay: Example IV postemergence foliar-applied mixtures, general weed control, greenhouse: CHEAL
Experimental: as §1, with “Sun Gro Metro-Mix® 360 planting mixture, which typically has” for “a soil matrix prepared by mixing a loam or sandy loam soil (e.g., 43 percent silt, 19 percent clay, and 38 percent sand, with”, “6.0 to 6.8” for “about 8.1”, “30 percent,” for “1.5 percent) and calcareous grit in an 80 to 20 ratio. The soil matrix was contained”, “square” for “square centimters (cm^2) and a volume of 560 cubic”, “(cm^2).” for “(cm^3).”
(§9) Treatments consisted of the acid or the benzyl ester of 4-amino-3-chloro-5-fluoro-6-(4-chloro-2-fluoro-3-methoxy-phenyl)pyridine-2-carboxylic acid (Compound A), each formulated as an SC, and various herbicidal components alone and in combination. Forms of compound A were applied on an acid equivalent basis.
as §2
(§10) For treatments comprised of formulated compounds, measured amounts of compounds were placed individually in 25 mL glass vials and diluted in a volume of 1.25% (v/v) Agri-dex crop oil concentrated to obtain 12× stock solutions. […] Application solutions were prepared by adding an appropriate amount of each stock solution (typically 1 mL) and diluted to the appropriate final concentrations with the addition of 10 mL of an aqueous mixture of 1.25% (v/v) Agri-dex crop oil concentrate so that the final spray solutions contained 1.25% (v/v) Agri-dex crop oil concentrate.
as §3
as §4, with “3” for “2”
as §5

[4] = tested on: IPOHE (Ipomoea hederacea Jacq., morning glory, ivyleaf); assay: Example IV postemergence foliar-applied mixtures, general weed control, greenhouse: IPOHE
Experimental: as §4, with “3” for “2”
as §5, §6, §7, §8

[5] = tested on: CYPES (Cyperus esculentus L., yellow nutsedge); assay: Example IV postemergence foliar-applied mixtures, general weed control, greenhouse: CYPES
Experimental: as §1, with “Sun Gro Metro-Mix® 360 planting mixture, which typically has” for “a soil matrix prepared by mixing a loam or sandy loam soil (e.g., 43 percent silt, 19 percent clay, and 38 percent sand, with”, “6.0 to 6.8” for “about 8.1”, “30 percent,” for “1.5 percent) and calcareous grit in an 80 to 20 ratio. The soil matrix was contained”, “square” for “square centimters (cm^2) and a volume of 560 cubic”, “(cm^2).” for “(cm^3).”
as §9, §2, §10, §3
as §4, with “3” for “2”
as §5

[6] = tested on: CIRAR (Cirsium arvense (L.) Scop., Canada thistle); assay: Example IV postemergence foliar-applied mixtures, general weed control, greenhouse: CIRAR (Table 17, species inferred from b27)
Experimental: as §1, with “Sun Gro Metro-Mix® 360 planting mixture, which typically has” for “a soil matrix prepared by mixing a loam or sandy loam soil (e.g., 43 percent silt, 19 percent clay, and 38 percent sand, with”, “6.0 to 6.8” for “about 8.1”, “30 percent,” for “1.5 percent) and calcareous grit in an 80 to 20 ratio. The soil matrix was contained”, “square” for “square centimters (cm^2) and a volume of 560 cubic”, “(cm^2).” for “(cm^3).”
as §9, §2, §10, §3
as §4, with “3” for “2”
as §5

[7] = tested on: AMARE (Amaranthus retroflexus L., redroot pigweed); assay: Example IV postemergence foliar-applied mixtures, general weed control, greenhouse: AMARE (Table 17, species inferred from b27)
Experimental: as §1, with “Sun Gro Metro-Mix® 360 planting mixture, which typically has” for “a soil matrix prepared by mixing a loam or sandy loam soil (e.g., 43 percent silt, 19 percent clay, and 38 percent sand, with”, “6.0 to 6.8” for “about 8.1”, “30 percent,” for “1.5 percent) and calcareous grit in an 80 to 20 ratio. The soil matrix was contained”, “square” for “square centimters (cm^2) and a volume of 560 cubic”, “(cm^2).” for “(cm^3).”
as §9, §2, §10, §3
as §4, with “3” for “2”
as §5

[8] = Glufosinate ammonium salt 112.5 gai/ha alone
[9] = Glufosinate ammonium salt 225 gai/ha alone
[10] = Glufosinate ammonium salt 450 gai/ha alone
[11] = Glufosinate ammonium salt 112.5 gai/ha alone, 18 DAA
[12] = Glufosinate ammonium salt 225 gai/ha alone, 18 DAA
[13] = Glufosinate ammonium salt 450 gai/ha alone, 18 DAA
[14] = Compound A Benzyl Ester 8 gae/ha alone
[15] = Compound A Benzyl Ester 2 gae/ha alone, 18 DAA
[16] = Compound A Benzyl Ester 4 gae/ha alone, 18 DAA
[17] = Compound A Benzyl Ester 8 gae/ha alone, 18 DAA
[18] = Compound A Benzyl Ester alone, 2 gae/ha
[19] = Compound A Benzyl Ester 2 gae/ha alone
[20] = Compound A Benzyl Ester 4 gae/ha alone
[21] = Compound A Benzyl Ester 16 gae/ha alone
[22] = Compound A Benzyl Ester 32 gae/ha alone

Which results are given for `COc1c(Cl)ccc(-c2nc(C(=O)O)c(Cl)c(N)c2F)c1F` [Compound A Acid, 4-amino-3-chloro-6-(4-chloro-2-fluoro-3-methoxyphenyl)-5-fluoropyridine-2-carboxylic acid]?
Visual Weed Control (%) - 16 DAA ELEIN Obs ([1]; Compound A Acid alone, 7.5 gae/ha): 10%; Visual Weed Control (%) - 16 DAA ELEIN Obs ([1]; Compound A Acid alone, 15 gae/ha): 10%

For `CP(=O)(O)CCC(N)C(=O)O` (centres unmarked) [Glufosinate ammonium salt, 2-amino-4-(hydroxymethylphosphinyl)butanoic acid monoammonium salt, reference compound], which “Visual Weed Control (%) - 18 DAA ECHCG Obs” value [2, 8] is on record?
Its value is 0%.

And the “Visual Weed Control (%) - 18 DAA ECHCG Obs” value [2, 9]?
The value was 0%.

And the “Visual Weed Control (%) - 18 DAA ECHCG Obs” value [2, 10]?
The value was 10%.

And the “Visual Weed Control (%) - 18 DAA CHEAL Obs” value [3, 11]?
Its value is 0%.

And the “Visual Weed Control (%) - 18 DAA CHEAL Obs” value [3, 12]?
Its value is 10%.

And the “Visual Weed Control (%) - 18 DAA CHEAL Obs” value [3, 13]?
Its value is 30%.

And the “Visual Weed Control (%) - 18 DAA IPOHE Obs” value [4, 8]?
The value was 10%.

What about the “Visual Weed Control (%) - 18 DAA IPOHE Obs” value [4, 9] of the same compound?
Its value is 20%.

And the “Visual Weed Control (%) - 18 DAA IPOHE Obs” value [4, 10]?
The value was 50%.

What about the “Visual Weed Control (%) - 16 DAA ELEIN Obs” value ([1]; glufosinate ammonium alone, 28.25 gae/ha) of the same compound?
Its value is 0%.

And the “Visual Weed Control (%) - 16 DAA ELEIN Obs” value ([1]; glufosinate ammonium alone, 56.5 gae/ha)?
The value was 0%.

What about the “Visual Weed Control (%) - 16 DAA ELEIN Obs” value ([1]; glufosinate ammonium alone, 113 gae/ha) of the same compound?
The value was 10%.

What about the “Visual Weed Control (%) - 18 DAA CYPES Obs” value [5, 11] of the same compound?
The value was 0%.

What about the “Visual Weed Control (%) - 18 DAA CYPES Obs” value [5, 12] of the same compound?
Its value is 0%.

And the “Visual Weed Control (%) - 18 DAA CYPES Obs” value [5, 13]?
Its value is 0%.

And the “Visual Weed Control (%) - 18 DAA CIRAR Obs” value [6, 9]?
Its value is 15%.

And the “Visual Weed Control (%) - 18 DAA AMARE Obs” value [7, 9]?
Its value is 50%.

What does the source list for `COc1c(Cl)ccc(-c2nc(C(=O)OCc3ccccc3)c(Cl)c(N)c2F)c1F` [Compound A Benzyl Ester]?
Visual Weed Control (%) - 18 DAA ECHCG Obs [2, 14]: 40%; Visual Weed Control (%) - 18 DAA CHEAL Obs [3, 15]: 50%; Visual Weed Control (%) - 18 DAA CHEAL Obs [3, 16]: 70%; Visual Weed Control (%) - 18 DAA CHEAL Obs [3, 17]: 90%; Visual Weed Control (%) - 18 DAA CHEAL Obs [3, 18]: 50%; Visual Weed Control (%) - 18 DAA CHEAL Obs ([3]; Compound A Benzyl Ester alone, 4 gae/ha): 70%; Visual Weed Control (%) - 18 DAA CHEAL Obs ([3]; Compound A Benzyl Ester alone, 8 gae/ha): 90%; Visual Weed Control (%) - 18 DAA CHEAL Obs ([3]; Compound A Benzyl Ester alone, 16 gae/ha): 95%; Visual Weed Control (%) - 18 DAA CHEAL Obs ([3]; Compound A Benzyl Ester alone, 32 gae/ha): 99%; Visual Weed Control (%) - 18 DAA IPOHE Obs [4, 19]: 15%; Visual Weed Control (%) - 18 DAA IPOHE Obs [4, 20]: 25%; Visual Weed Control (%) - 18 DAA IPOHE Obs [4, 14]: 25%; Visual Weed Control (%) - 18 DAA IPOHE Obs [4, 21]: 35%; Visual Weed Control (%) - 18 DAA IPOHE Obs [4, 22]: 45%; Visual Weed Control (%) - 18 DAA CYPES Obs [5, 15]: 40%; Visual Weed Control (%) - 18 DAA CYPES Obs [5, 16]: 75%; Visual Weed Control (%) - 18 DAA CYPES Obs [5, 17]: 80%; Visual Weed Control (%) - 18 DAA CYPES Obs [5, 18]: 40%; Visual Weed Control (%) - 18 DAA CIRAR Obs [6, 19]: 60%; Visual Weed Control (%) - 18 DAA CIRAR Obs [6, 20]: 70%; Visual Weed Control (%) - 18 DAA CIRAR Obs [6, 14]: 80%; Visual Weed Control (%) - 18 DAA CIRAR Obs [6, 21]: 85%; Visual Weed Control (%) - 18 DAA CIRAR Obs [6, 22]: 90%; Visual Weed Control (%) - 18 DAA AMARE Obs [7, 19]: 50%; Visual Weed Control (%) - 18 DAA AMARE Obs [7, 20]: 60%; Visual Weed Control (%) - 18 DAA AMARE Obs [7, 14]: 85%; Visual Weed Control (%) - 18 DAA AMARE Obs [7, 21]: 85%; Visual Weed Control (%) - 18 DAA AMARE Obs [7, 22]: 100%

Source: patent US20140031227A1, “HERBICIDAL COMPOSITIONS COMPRISING 4-AMINO-3-CHLORO-5-FLUORO-6-(4-CHLORO-2-FLUORO-3-METHOXYPHENYL) PYRIDINE-2-CARBOXYLIC ACID OR A DERIVATIVE THEREOF AND GLYPHOSATE OR GLUFOSINATE” (DOW AGROSCIENCES LLC, priority 2012, published 2014)
